This assay in a line: Inhibition of LCK in human peripheral T cells assessed as suppression of TCR-dependant cell proliferation.

This passage reports IC50 results from BindingDB's records for doi:10.1021/acs.jmedchem.6b01088 (Bristol Myers Squibb, 2016).

A word on the IC50: it is the point on the concentration scale where inhibition reaches its midpoint. In the case of `Cc1c(-c2c(F)cc(C(N)=O)c3[nH]c4c(c23)CC[C@H](C(C)(C)O)C4)cccc1-n1c(=O)c2cccc(F)c2n(C)c1=O`, the IC50 is 3.8 µM.
